In one assay the target is T1, aggrecanase-1 (Homo sapiens, UniProt O75173).
T1 sequence (O75173 213-837): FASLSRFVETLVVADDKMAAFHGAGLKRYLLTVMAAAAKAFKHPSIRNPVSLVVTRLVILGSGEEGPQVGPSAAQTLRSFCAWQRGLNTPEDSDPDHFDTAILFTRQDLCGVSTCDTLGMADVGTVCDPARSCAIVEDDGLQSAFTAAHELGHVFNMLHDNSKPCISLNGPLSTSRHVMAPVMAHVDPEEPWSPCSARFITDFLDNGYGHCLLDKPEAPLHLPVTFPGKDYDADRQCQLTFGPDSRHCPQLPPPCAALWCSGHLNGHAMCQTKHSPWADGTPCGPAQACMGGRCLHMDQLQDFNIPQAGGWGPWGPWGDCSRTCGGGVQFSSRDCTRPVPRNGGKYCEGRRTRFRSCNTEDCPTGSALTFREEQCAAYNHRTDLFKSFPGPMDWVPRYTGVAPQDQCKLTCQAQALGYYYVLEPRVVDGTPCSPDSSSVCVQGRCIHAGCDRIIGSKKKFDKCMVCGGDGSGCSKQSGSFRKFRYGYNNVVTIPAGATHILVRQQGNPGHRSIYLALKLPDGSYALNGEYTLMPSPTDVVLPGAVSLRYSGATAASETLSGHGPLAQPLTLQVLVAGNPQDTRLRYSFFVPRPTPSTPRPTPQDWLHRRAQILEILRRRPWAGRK
As to the kind of experiment: Aggrecanase-1 inhibitory action, Particle Assay (GAG release from aggrecan-containing polyacrylamide particles). In kind it is biochemical. The conditions noted are these: 37° C. for 15 hr, read-out: Experimental Example 1 IC50 AG1. On the procedure:
Aggrecanase-1 Inhibitory Action
Particle Assay was used for determination of aggrecanase activity.
(§1) The enzyme and substrate were diluted with Tris-HCl buffer, and test compounds were diluted with dimethyl sulfoxide (DMSO).
Test compounds and the enzyme were added into 96-well plate, and polyacrylamide particles containing aggrecan were added as a substrate and the mixture was incubated at 37° C. for 15 hr.
After incubation; the supernatant was transferred to another plate, and mixed with 1,9-dimethylmethylene blue. The absorbance at 595 nm was measured to quantify the amount of glycosaminoglycan (GAG) released in the reaction supernatant. Whale chondroitin sulfate was used as the standard of GAG. The inhibitory activity of the compound in each well (%) was calculated based on the values of enzyme-free well and inhibitor-free well. The inhibitory activity of the compound was represented as IC50 (μM).

A further assay deals with T2, MMP-1 (Homo sapiens, UniProt P03956).
T2 sequence (P03956 100-469): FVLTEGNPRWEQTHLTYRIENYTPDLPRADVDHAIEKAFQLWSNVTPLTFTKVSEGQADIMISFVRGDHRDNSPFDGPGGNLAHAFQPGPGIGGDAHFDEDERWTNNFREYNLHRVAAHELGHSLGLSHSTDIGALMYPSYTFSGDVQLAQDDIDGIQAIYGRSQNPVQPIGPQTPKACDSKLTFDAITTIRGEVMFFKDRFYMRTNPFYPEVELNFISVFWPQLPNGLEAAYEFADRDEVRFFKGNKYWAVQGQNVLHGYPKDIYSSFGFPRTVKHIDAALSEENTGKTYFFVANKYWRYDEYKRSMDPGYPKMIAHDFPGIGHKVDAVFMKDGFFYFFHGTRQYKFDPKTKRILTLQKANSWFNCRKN
As to the kind of experiment: MMP-1 inhibitory action, Type I collagen Activity Measurement kit (FITC-labeled collagen type I). The conditions noted are these: 37° C. for 3 hr, read-out: Experimental Example 2 IC50 MMP1. Type of assay: biochemical. On the procedure:
For MMP-1 Assay, Type I collagen Activity Measurement kit (YAGAI YU-72013) modified to a 96-well plate format was used.
The principle of the kit is based on the property of collagen that becomes soluble in ethanol after being cleaved by MMP-1.
as §1
The enzyme and test compounds were added into 96-well plate, and fluorescein isothiocianate (FITC)-labeled collagen type I was added as a substrate and the mixture was incubated at 37° C. for 3 hr.
The reaction was terminated by addition of Tris-HCl buffer containing ethanol. After centrifugation, the supernatant containing denatured substrate was transferred to another 96-well plate. The collagenase activity of MMP-1 was determined by measuring FITC fluorescence intensity (excitation wavelength 485 nm, emission wavelength 530 nm) of each well. The inhibitory activity of the compound in each well (%) was calculated based on the values of enzyme-free well and inhibitor-free well. The inhibitory activity of the compound was represented as IC50 (μM).

pIC50: −log10 of the molar value. Where only a bound is given, the exact number is not on record here.

As a reminder, the pIC50 is the IC50 on a negative log10 scale, so that one unit is a factor of ten. In the case of `CC(C)(C)OC(=O)NCCN([C@]1(C(=O)O)C[C@H]1c1ccccc1)S(=O)(=O)c1ccc(-c2ccc(Cl)cc2)cc1` (relative stereo) [Example 1-4, (1R*,2S*)-1-[(2-tert-butoxycarbonylamino-ethyl)-(4′-chloro-biphenyl-4-sulfonyl)-amino]-2-phenyl-cyclopropanecarboxylic acid], the pIC50 is over 6.00 on aggrecanase-1 and at most 5.00 at MMP-1.
As to `O=C(O)[C@@]1(N(Cc2cc(=O)[nH][nH]2)S(=O)(=O)c2ccc(-c3ccc(Cl)cc3)cc2)C[C@H]1c1ccccc1` (relative stereo) [Example 1-5, (1R*,2S*)-1-[(4′-chloro-biphenyl-4-sulfonyl)-(5-oxo-2,5-dihydro-1H-pyrazol-3-ylmethyl)-amino]-2-phenyl-cyclopropanecarboxylic acid], the results for the pIC50 on aggrecanase-1 and on MMP-1 were over 6.00 and at most 5.00, respectively.
Turning to `CS(=O)(=O)NCCN([C@]1(C(=O)O)C[C@H]1c1ccccc1)S(=O)(=O)c1ccc(-c2ccc(Cl)cc2)cc1` (relative stereo) [Example 1-7, (1R*,2S*)-1-[(4′-chloro-biphenyl-4-sulfonyl)-(2-methanesulfonylamino-ethyl)-amino]-2-phenyl-cyclopropanecarboxylic acid], the pIC50 is over 6.00 on aggrecanase-1 and at most 5.00 at MMP-1.
Take `CC(C)OC(=O)NS(=O)(=O)NCCN([C@]1(C(=O)O)C[C@H]1c1ccccc1)S(=O)(=O)c1ccc(-c2ccc(Cl)cc2)cc1` (relative stereo) [Example 1-9, (1R*, 2S*)-1-[(4′-chloro-biphenyl-4-sulfonyl)-(2-isopropoxycarbonylaminosulfonylamino-ethyl)-amino]-2-phenyl-cyclopropanecarboxylic acid]: the pIC50 at aggrecanase-1 was over 6.00; on MMP-1, at most 5.00.
Regarding `O=C(O)c1ccc(CN([C@]2(C(=O)O)C[C@H]2c2ccccc2)S(=O)(=O)c2ccc(-c3ccc(Cl)cc3)cc2)cc1` (relative stereo) [Example 1-10, (1R*,2S*)-4-{[(1-carboxy-2-phenyl-cyclopropyl)-(4′-chloro-biphenyl-4-sulfonyl)-amino]-methyl}-benzoic acid], the pIC50 on aggrecanase-1 is over 7.00; at MMP-1, at most 5.00.
In the case of `O=C(O)CN([C@]1(C(=O)O)C[C@H]1c1ccc(Cl)cc1)S(=O)(=O)c1ccc(-c2ccc(Cl)cc2)cc1` (relative stereo) [Example 1-11, (1R*,2S*)-1-[carboxymethyl-(4′-chloro-biphenyl-4-sulfonyl)-amino]-2-(4-chloro-phenyl)-cyclopropanecarboxylic acid], the pIC50 at aggrecanase-1 was over 6.00; at MMP-1, at most 5.00.
Regarding `O=C(O)CN([C@]1(C(=O)O)C[C@H]1c1cccc(Cl)c1)S(=O)(=O)c1ccc(-c2ccc(Cl)cc2)cc1` (relative stereo) [Example 1-12, (1R*,2S*)-1-[carboxymethyl-(4′-chloro-biphenyl-4-sulfonyl)-amino]-2-(3-chloro-phenyl)-cyclopropanecarboxylic acid], the values for the pIC50 on aggrecanase-1 and on MMP-1 were over 6.00 and at most 5.00, respectively.
For `O=C(O)CN([C@]1(C(=O)O)C[C@H]1c1ccccc1Cl)S(=O)(=O)c1ccc(-c2ccc(Cl)cc2)cc1` (relative stereo) [Example 1-13, (1R*,2S*)-1-[carboxymethyl-(4′-chloro-biphenyl-4-sulfonyl)-amino]-2-(2-chloro-phenyl)-cyclopropanecarboxylic acid], the negative-log IC50 (pIC50) on aggrecanase-1 is over 6.00; at MMP-1, at most 5.00.
Turning to `O=C(O)[C@@]1(N(Cc2nn[nH]n2)S(=O)(=O)c2ccc(-c3ccc(Cl)cc3)cc2)C[C@H]1c1ccccc1` (relative stereo) [Example 1-15, (1R*,2S*)-1-[(4′-chloro-biphenyl-4-sulfonyl)-(2H-tetrazol-5-ylmethyl)-amino]-2-phenyl-cyclopropanecarboxylic acid], the pIC50 on aggrecanase-1 is over 6.00; at MMP-1, at most 5.00.
In the case of `O=C(O)[C@@]1(N(Cc2cccc(O)c2)S(=O)(=O)c2ccc(-c3ccc(Cl)cc3)cc2)C[C@H]1c1ccccc1` (relative stereo) [Example 1-17, (1R*,2S*)-1-[(4′-chloro-biphenyl-4-sulfonyl)-(3-hydroxy-benzyl)-amino]-2-phenyl-cyclopropanecarboxylic acid], the figures for the pIC50 at aggrecanase-1 and at MMP-1 were over 6.00 and at most 5.00, respectively.
Regarding `Cc1ccc([C@@H]2C[C@@]2(C(=O)O)N(CC(=O)O)S(=O)(=O)c2ccc(-c3ccc(Cl)cc3)cc2)cc1` (relative stereo) [Example 1-18, (1R*,2S*)-1-[carboxymethyl-(4′-chloro-biphenyl-4-sulfonyl)-amino]-2-(4-methyl-phenyl)-cyclopropanecarboxylic acid], the pIC50 on aggrecanase-1 is over 6.00; on MMP-1, at most 5.00.
On to `Cc1ccccc1[C@@H]1C[C@@]1(C(=O)O)N(CC(=O)O)S(=O)(=O)c1ccc(-c2ccc(Cl)cc2)cc1` (relative stereo) [Example 1-19, (1R*,2S*)-1-[carboxymethyl-(4′-chloro-biphenyl-4-sulfonyl)-amino]-2-(2-methyl-phenyl)-cyclopropanecarboxylic acid], for which the pIC50 was over 6.00 at aggrecanase-1 and at most 5.00 on MMP-1.
In the case of `Cc1cccc([C@@H]2C[C@@]2(C(=O)O)N(CC(=O)O)S(=O)(=O)c2ccc(-c3ccc(Cl)cc3)cc2)c1` (relative stereo) [Example 1-20, (1R*,2S*)-1-[carboxymethyl-(4′-chloro-biphenyl-4-sulfonyl)-amino]-2-(3-methyl-phenyl)-cyclopropanecarboxylic acid], the pIC50 on aggrecanase-1 was over 6.00; at MMP-1, at most 5.00.
`COc1ccccc1[C@@H]1C[C@@]1(C(=O)O)N(CC(=O)O)S(=O)(=O)c1ccc(-c2ccc(Cl)cc2)cc1` (relative stereo) [Example 1-22, (1R*,2S*)-1-[carboxymethyl-(4′-chloro-biphenyl-4-sulfonyl)-amino]-2-(2-methoxy-phenyl)-cyclopropanecarboxylic acid]: the pIC50 on aggrecanase-1 was over 6.00; on MMP-1, at most 5.00.
On to `O=C(O)CN([C@]1(C(=O)O)C[C@H]1c1ccc(Cl)c(Cl)c1)S(=O)(=O)c1ccc(-c2ccc(Cl)cc2)cc1` (relative stereo) [Example 1-23, (1R*,2S*)-1-[carboxymethyl-(4′-chloro-biphenyl-4-sulfonyl)-amino]-2-(3,4-dichloro-phenyl)-cyclopropanecarboxylic acid], for which the results for the pIC50 at aggrecanase-1 and at MMP-1 were over 6.00 and at most 5.00, respectively.
Turning to `O=C(O)CN([C@]1(C(=O)O)C[C@H]1c1cc(Cl)ccc1Cl)S(=O)(=O)c1ccc(-c2ccc(Cl)cc2)cc1` (relative stereo) [Example 1-24, (1R*,2S*)-1-[carboxymethyl-(4′-chloro-biphenyl-4-sulfonyl)-amino]-2-(2,5-dichloro-phenyl)-cyclopropanecarboxylic acid], the negative-log IC50 (pIC50) was over 6.00 on aggrecanase-1 and at most 5.00 at MMP-1.
Take `O=C(O)CN([C@]1(C(=O)O)C[C@H]1c1cccc(Oc2ccccc2)c1)S(=O)(=O)c1ccc(-c2ccc(Cl)cc2)cc1` (relative stereo) [Example 1-25, (1R*,2S*)-1-[carboxymethyl-(4′-chloro-biphenyl-4-sulfonyl)-amino]-2-(3-phenoxy-phenyl)-cyclopropanecarboxylic acid]: the pIC50 was over 7.00 on aggrecanase-1 and at most 5.00 at MMP-1.

Source of the values: US20050222146A1, “N-substituted-n-sulfonylaminocyclopropane compounds and pharmaceutical use thereof” (priority 2003, published 2005).
